This assay addresses T1, human CB1 receptor (Homo sapiens, UniProt P21554).
T1 construct: expressed in transfected cells; membranes used
Kind of assay: Cannabinoid Receptor-1 functional assay: inhibition of CP55940-induced [35S]GTPγS binding to membranes of CHO-K1 cells expressing human CB1. The assay is classed as biochemical. The settings on record: 3 nM CP55940, [35S]GTPγS SPA, hCB1 membranes; read-out: IC50 value for antagonizing a CB1 receptor agonist. The text has this:
Transfection and Cell Culture—The cDNA encoding the human CB1 (Cannabinoid Receptor-1) receptor (GenBank accession number NM_016083) was cloned from a human adipose tissue cDNA library and cloned into the eukaryotic expression vector pcDNA3.1 (Invitrogen).
Chinese Hamster Ovary cells (CHO-K1) stably expressing recombinant human CB1 were generated by transfecting the plasmid containing the coding sequence of the human CB1 receptor in CHO-K1 cells, using lipofectamin, according to the manufacturer instructions. Resistant clones were selected in the presence of 600 μg/ml G418 (Life technology). Stably transfected CHO-K1 cells were maintained in Ham's F-12 culture medium (Invitrogen), supplemented with 10% fetal calf serum (Invitrogen), 100 U/ml penicillin, 100 μg/ml streptomycin (Life Technology), and 600 μg/ml G418.
Functional activities of the above examples of compounds of the invention were assessed in vitro by measuring their ability to inhibit CP55940-induced [^35S]GTPγS binding to membranes prepared from CHO-K1 cells expressing the human CB1 receptor (described in Transfection and Cell Culture). CP55940 is a well known non-selective CB1 and CB2 receptor agonist (e.g Felder et al., 1995, Molecular Pharmacology, (48) 443-50). Membranes were prepared by a standard procedure. Briefly, cells were harvested using 10 mM EDTA and collected by centrifugation. Pelleted cells were homogenized in ice-cold 20 mM Hepes (pH 7.4), 10 mM EDTA and protease inhibitors (Complete protease inhibitor cocktail tablet, Roche) using an Ultra Turrax Homogenizer. The homogenate was centrifuged at 14 000 rpm for 45 min. at 4° C. The resultant pellet was resuspended in the same buffer but with only 0.1 mM EDTA and was again centrifuged at 14 000 rpm for 45 min. at 4° C. The resulting pellet (membranes) was resuspended in 20 mM Hepes (pH 7.4), 0.1 mM EDTA, 2 mM MgCl2 and protease inhibitors and protein concentration was determined by Micro BCA Protein Assay Reagent Kit (Pierce Biotechnology) according to the manufacturer instructions. The [^35S]GTPγS SPA (Scintillation Proximity Assay) binding assay was performed by incubating 5 μg/well hCB1-membranes with 1 nM [^35S]GTPγS (Perkin Elmer—NEG 030H) in the presence of 3 nM of CP55940 and various concentrations of the test compounds at room temperature for 1 hr in 96-well microtiter plates. 0.4 mg/well SPA beads (PVT-WGA; RPNQ0001 Amersham Pharmacia Biotech) were then added and the incubation continued for further 30 min. on an orbital shaker. The assay buffer contained 50 mM HEPES (pH 7.5), 50 mM NaCl, 2.5 mM MgCl2, 0.1% BSA, 1 μM GDP and 100 μg/ml Saponin. Microtiter plates were centrifuged at 1500 rpm for 5 min. and radioactivity was read immediately using a Topcounter (PerkinElmer Life Sciences). Data were analyzed and IC50 values determined by non-linear regression using the Prism software (GraphPad Software, San Diego).

A word on the IC50: it is the concentration at which inhibition is half-maximal.

T1 sequence (P21554 whole entry): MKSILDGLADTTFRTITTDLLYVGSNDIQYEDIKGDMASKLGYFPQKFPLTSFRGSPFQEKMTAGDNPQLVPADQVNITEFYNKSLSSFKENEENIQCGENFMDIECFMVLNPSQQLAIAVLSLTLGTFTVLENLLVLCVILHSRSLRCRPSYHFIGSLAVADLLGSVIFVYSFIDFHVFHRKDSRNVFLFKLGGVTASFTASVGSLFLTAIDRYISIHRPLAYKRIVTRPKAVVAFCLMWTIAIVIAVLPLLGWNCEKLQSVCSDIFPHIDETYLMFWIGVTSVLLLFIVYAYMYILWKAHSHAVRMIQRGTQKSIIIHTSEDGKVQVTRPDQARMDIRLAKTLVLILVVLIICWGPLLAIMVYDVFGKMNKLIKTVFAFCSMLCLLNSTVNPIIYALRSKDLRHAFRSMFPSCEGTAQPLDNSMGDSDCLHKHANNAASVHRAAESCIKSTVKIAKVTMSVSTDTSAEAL

With `O=C(O)Cc1c(C(=O)N2CCC(O)(c3ccccc3F)CC2)nn(-c2ccccc2Cl)c1-c1ccc(Cl)cc1` [[1.21], {1-(2-Chloro-phenyl)-5-(4-chloro-phenyl)-3-[4-(2-fluoro-phenyl)-4-hydroxy-piperidine-1carbonyl]-1H-pyrazol-4-yl}-acetic acid], the IC50 was under 300 nM.

With `O=C(O)Cc1c(C(=O)N2CCC(c3ccccc3F)CC2)nn(-c2ccccc2Cl)c1-c1ccc(Cl)cc1` [[1.27], {1-(2-Chloro-phenyl)-5-(4-chloro-phenyl)-3-[4-(2-fluoro-phenyl)-piperidine-1-carbonyl]-1H-pyrazol-4-yl}-acetic acid], the IC50 is under 300 nM. As for `O=C(c1nn(-c2ccccc2Cl)c(-c2ccc(Cl)cc2)c1Cc1nn[nH]n1)N1Cc2ccc(F)cc2C1` [Compound [3.1], [5-(4-Chloro-phenyl)-1-(2-chloro-phenyl)-4-(2H-tetrazol-5-ylmethyl)-1H-pyrazol-3-yl]-(5-fluoro-1,3-dihydro-isoindol-2-yl)-methanone], the figure is 300 to 3000 nM; as for `O=C(O)Cc1c(C(=O)N2CCC(c3ccc(F)cc3)C2)nn(-c2ccccc2Cl)c1-c1ccc(Cl)cc1` (stereo not drawn) [[1.15], {1-(2-Chloro-phenyl)-5-(4-chloro-phenyl)-3-[3-(4-fluoro-phenyl)-pyrrol-idine-1-carbonyl]-1H-pyrazol-4-yl}-acetic acid], under 300 nM; as for `O=C(O)Cc1c(C(=O)N2CCC(c3ccc(F)cc3)CC2)nn(-c2ccccc2Cl)c1-c1ccc(Cl)cc1` [[1.5], {5-(4-Chloro-phenyl)-1-(2-chloro-phenyl)-3-[4-(4-fluoro-phenyl)-piperidine-1-carbonyl]-1H-pyrazol-4-yl}-acetic acid], under 300 nM. With `O=C(O)Cc1c(C(=O)N2CCN(c3ncccn3)CC2)nn(-c2ccccc2Cl)c1-c1ccc(Cl)cc1` [[1.16], [5-(4-Chloro-phenyl)-1-(2-chloro-phenyl)-3-(4-pyrimidin-2-yl-piperazine-1-carbonyl)-1H-pyrazol-4-yl]-acetic acid], the IC50 was in the range of 300 to 3000 nM. As for `O=C(O)Cc1c(C(=O)N2CCC(O)(c3ccc(C(F)(F)F)cc3)CC2)nn(-c2ccccc2Cl)c1-c1ccc(Cl)cc1` [[1.10], {1-(2-Chloro-phenyl)-5-(4-chloro-phenyl)-3-[4-hydroxy-4-(4-trifluoromethyl-phenyl)-piperidine-1-carbonyl]-1H-pyrazol-4-yl}-acetic acid], the figure is under 300 nM; as for `O=C(O)Cc1c(C(=O)N2CCC(Oc3ccccc3)CC2)nn(-c2ccccc2Cl)c1-c1ccc(Cl)cc1` [[1.58]], under 300 nM. Regarding `O=C(c1nn(-c2ccccc2Cl)c(-c2ccc(Cl)cc2)c1Cc1nn[nH]n1)N1CCC(Oc2ccccc2)CC1` [[3.5], [1-(2-Chloro-phenyl)-5-(4-chloro-phenyl)-4-(2H-tetrazol-5-ylmethyl)-1H-pyrazol-3-yl]-[4-phenoxy-piperidin-1-yl]-methanone], the IC50 is under 300 nM. For the compound `O=C(O)Cc1c(C(=O)N2CCC(O)(c3ccc(F)c(C(F)(F)F)c3)CC2)nn(-c2ccccc2Cl)c1-c1ccc(Cl)cc1` [[1.42], {1-(2-Chloro-phenyl)-5-(4-chloro-phenyl)-3-[4-(4-fluoro-3-trifluoromethyl-phenyl)-4-hydroxy-piperidine-1-carbonyl]-1H-pyrazol-4-yl}-acetic acid], the concentration for half-maximal inhibition (IC50) was under 300 nM. As for `O=C(O)Cc1c(C(=O)N2CCN(c3ccccc3)CC2)nn(-c2ccccc2Cl)c1-c1ccc(Cl)cc1` [Compound [1.2], [1-(2-Chloro-phenyl)-5-(4-chloro-phenyl)-3-(4-phenyl-piperazine-1-carbonyl)-1H-pyrazol-4-yl]-acetic acid], the figure is 300 to 3000 nM; as for `O=C(O)Cc1c(C(=O)N2CCC(c3cccc(F)c3)C2)nn(-c2ccccc2Cl)c1-c1ccc(Cl)cc1` (stereo not drawn) [[1.55], {1-(2-Chloro-phenyl)-5-(4-chloro-phenyl)-3-[3-(3-fluoro-phenyl)-pyrrolidine-1-carbonyl]-1H-pyrazol-4-yl}-acetic acid], under 300 nM. As for `O=C(O)Cc1c(C(=O)N2CCC(c3cccc(C(=O)O)c3)CC2)nn(-c2ccccc2Cl)c1-c1ccc(Cl)cc1` [[1.30], 3-{1-[4-Carboxymethyl-1-(2-chloro-phenyl)-5-(4-chloro-phenyl)-1H-pyrazole-3-carbonyl]-piperidin-4-yl}-benzoic acid], the figure is 3000 to 10000 nM; as for `N#Cc1ccccc1C1CCN(C(=O)c2nn(-c3ccccc3Cl)c(-c3ccc(Cl)cc3)c2CC(=O)O)CC1` [[1.51], {1-(2-Chloro-phenyl)-5-(4-chloro-phenyl)-3-[4-(2-cyano-phenyl)-piperidine-1-carbonyl]-1H-pyrazol-4-yl}-acetic acid], under 300 nM; as for `O=C(O)Cc1c(C(=O)N2CCC(O)(c3ccccc3)CC2)nn(-c2ccccc2Cl)c1-c1ccc(Cl)cc1` [[1.14], [1-(2-Chloro-phenyl)-5-(4-chloro-phenyl)-3-(4-hydroxy-4-phenyl-piperidine-1-carbonyl)-1H-pyrazol-4-yl]-acetic acid], under 300 nM. Under `O=C(O)Cc1c(C(=O)N2CC(Oc3ccc(F)cc3)C2)nn(-c2ccccc2Cl)c1-c1ccc(Cl)cc1` [[1.60], {1-(2-Chloro-phenyl)-5-(4-chloro-phenyl)-3-[3-(4-fluorophenoxy)-azetidine-1-carbonyl]-1H-pyrazol-4-yl}-acetic acid] stands under 300 nM; under `O=C(c1nn(-c2ccccc2Cl)c(-c2ccc(Cl)cc2)c1Cc1nn[nH]n1)N1CCC(c2ccc(F)cc2)CC1` [[3.3], [1-(2-Chloro-phenyl)-5-(4-chloro-phenyl)-4-(2H-tetrazol-5-ylmethyl)-1H-pyrazol-3-yl]-[4-(4-fluoro-phenyl)-piperidin-1-yl]-methanone], under 300 nM; under `O=C(O)Cc1c(C(=O)N2CC[C@H](c3ccccc3)[C@@H](O)C2)nn(-c2ccccc2Cl)c1-c1ccc(Cl)cc1` [[1.44], [1-(2-Chloro-phenyl)-5-(4-chloro-phenyl)-3-((3R,4R)-3-hydroxy-4-phenyl-piperidine-1-carbonyl)-1H-pyrazol-4-yl]-acetic acid], 300 to 3000 nM. Consider `O=C(c1nn(-c2ccccc2F)c(-c2ccc(Cl)cc2)c1Cc1nn[nH]n1)N1CCC(Oc2ccc(Cl)cc2)CC1` [[4.1], [1-(2-Fluoro-phenyl)-5-(4-chloro-phenyl)-4-(2H-tetrazol-5-ylmethyl)-1H-pyrazol-3-yl]-[4-(4-chlorophenoxy)-piperidin-1-yl]-methanone], for which the IC50 was under 300 nM. As for `O=C(O)Cc1c(C(=O)N2CCCCC2)nn(-c2ccccc2Cl)c1-c1ccc(Cl)cc1` [[1.47], [1-(2-Chloro-phenyl)-5-(4-chloro-phenyl)-3-(piperidine-1-carbonyl)-1H-pyrazol-4-yl]-acetic acid], the IC50 lay within 300 to 3000 nM. Take `COC[C@@H]1CCCN1C(=O)c1nn(-c2ccccc2Cl)c(-c2ccc(Cl)cc2)c1CC(=O)O` [[1.41], [1-(2-Chloro-phenyl)-5-(4-chloro-phenyl)-3-((S)-2-methoxymethyl-pyrrolidine-1-carbonyl)-1H-pyrazol-4-yl]-acetic acid]: the 50% inhibitory concentration (IC50) lay in the range of 300 to 3000 nM.

`O=C(O)C(O)c1c(C(=O)N2CCC(c3ccccc3F)CC2)nn(-c2ccccc2Cl)c1-c1ccc(Cl)cc1` (stereo not drawn) [Compound [1.65], {1-(2-Chloro-phenyl)-5-(4-chloro-phenyl)-3-[4-(2-fluoro-phenyl)-piperidine-1-carbonyl]-1H-pyrazol-4-yl}-2-hydroxy acetic acid]: the IC50 was under 300 nM.

Turning to `O=C(O)Cc1c(C(=O)N2CCC(O)(c3ccc(F)cc3)CC2)nn(-c2ccccc2Cl)c1-c1ccc(Cl)cc1` [[1.7], {1-(2-Chloro-phenyl)-5-(4-chloro-phenyl)-3-[4-(4-fluoro-phenyl)-4-hydroxy-piperidine-1-carbonyl]-1H-pyrazol-4-yl}-acetic acid], the IC50 was under 300 nM. `O=C(O)Cc1c(C(=O)N2CCC(Oc3ncc(F)cn3)CC2)nn(-c2ccccc2Cl)c1-c1ccc(Cl)cc1` [[1.63], {1-(2-Chloro-phenyl)-5-(4-chloro-phenyl)-3-[4-(5-fluoropyrimidin-2-oxy)-piperidine-1-carbonyl]-1H-pyrazol-4-yl}-acetic acid]: the IC50 is under 300 nM.

For the origin of these results see US8148404B2, “Modulators of CB1 receptors” (7TM Pharma A/S, priority 2006, dated 2012).
